Test results as given in patent EP4741386A1 (Jiangsu Yahong Meditech Co., Ltd., priority 2023, dated 2025).

Columns and labels:
MDA-MB-436 = experiment: CTG experiment for cell viability (CellTiter-Glo, 96-well plate, 7 days); format: cell-based; conditions: Homo sapiens, MDA-MB-436, 168 h, MDA-MB-436 cells, 7 days culture with compound
Outline: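 MDA-MB-436 cells in DMEM were plated in 96-well format, treated with compounds, and cultured 7 days at 37°C. After removing the medium, cells were given PBS plus CellTiter-Glo reagent, incubated 10 min at room temperature, and luminescence was read. Curves were fitted as for the enzyme assay.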

[1] = target: T1, Recombinant human His6-USP1/His6-UAF1 complex protein (Homo sapiens, UniProt O94782); experiment: In vitro inhibitory activity against USP1 (Ubiquitin Rhodamine 110 fluorescence detection, 384-well plate); format: biochemical; conditions: Ub-Rho substrate, 1 hour pre-incubation, read after 30 minutes
T1 construct: His6; purchased R&D E-568-050
Outline: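 Fluorescence assay measuring inhibition of recombinant human His6-USP1/His6-UAF1 complex with Ubiquitin-Rhodamine 110 substrate. Compounds held as 50 mM stocks in 100% DMSO and dispensed by acoustic transfer into modified Tris assay buffer.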

T1 sequence (O94782 whole entry): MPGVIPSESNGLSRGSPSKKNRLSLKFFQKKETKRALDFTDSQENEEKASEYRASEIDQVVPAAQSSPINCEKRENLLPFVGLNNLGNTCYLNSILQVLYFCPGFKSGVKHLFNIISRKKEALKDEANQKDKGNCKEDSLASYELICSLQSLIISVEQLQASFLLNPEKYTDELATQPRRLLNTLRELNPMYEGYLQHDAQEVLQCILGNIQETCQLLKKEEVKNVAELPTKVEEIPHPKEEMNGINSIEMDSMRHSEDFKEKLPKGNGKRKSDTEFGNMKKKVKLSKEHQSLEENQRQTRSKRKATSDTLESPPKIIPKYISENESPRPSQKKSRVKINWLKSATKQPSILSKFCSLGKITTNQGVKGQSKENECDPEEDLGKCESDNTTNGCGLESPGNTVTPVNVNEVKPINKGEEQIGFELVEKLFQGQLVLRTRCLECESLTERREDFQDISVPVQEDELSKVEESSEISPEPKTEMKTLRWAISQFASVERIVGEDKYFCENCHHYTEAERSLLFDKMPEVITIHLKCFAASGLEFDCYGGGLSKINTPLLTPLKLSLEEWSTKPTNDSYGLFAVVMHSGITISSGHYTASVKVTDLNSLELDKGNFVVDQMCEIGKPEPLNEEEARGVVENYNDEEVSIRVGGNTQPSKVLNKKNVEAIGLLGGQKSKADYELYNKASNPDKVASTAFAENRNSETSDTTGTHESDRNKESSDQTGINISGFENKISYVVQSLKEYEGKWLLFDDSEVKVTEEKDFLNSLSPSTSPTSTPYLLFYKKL
T1 sequence (Q8TAF3 whole entry partner): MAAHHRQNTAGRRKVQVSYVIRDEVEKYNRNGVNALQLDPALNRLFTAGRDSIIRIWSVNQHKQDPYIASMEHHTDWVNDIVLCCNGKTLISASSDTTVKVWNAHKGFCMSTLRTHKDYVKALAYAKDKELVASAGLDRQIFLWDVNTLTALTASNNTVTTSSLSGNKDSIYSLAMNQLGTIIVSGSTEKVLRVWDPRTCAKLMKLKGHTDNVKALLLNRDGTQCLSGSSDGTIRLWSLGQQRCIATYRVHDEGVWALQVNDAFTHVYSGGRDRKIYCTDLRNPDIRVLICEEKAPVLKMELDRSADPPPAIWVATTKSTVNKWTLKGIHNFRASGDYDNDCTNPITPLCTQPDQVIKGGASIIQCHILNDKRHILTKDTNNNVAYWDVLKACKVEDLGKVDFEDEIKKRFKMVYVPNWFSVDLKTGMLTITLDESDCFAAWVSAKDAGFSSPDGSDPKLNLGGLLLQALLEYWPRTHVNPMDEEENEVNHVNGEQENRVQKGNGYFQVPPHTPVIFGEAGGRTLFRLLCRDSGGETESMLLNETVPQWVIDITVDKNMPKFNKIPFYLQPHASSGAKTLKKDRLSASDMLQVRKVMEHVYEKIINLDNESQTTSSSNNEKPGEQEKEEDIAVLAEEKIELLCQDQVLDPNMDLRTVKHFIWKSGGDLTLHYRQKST

Work on COc1ncnc(C2CC2)c1-c1ncc(OC(C)C)c(N(C)CC2CCN(c3nc(C(F)(F)F)cn3C)CC2)n1 [Example 108, 4'-Cyclopropyl-5-isopropoxy-6'-methoxy-N-methyl-N-((1-(1-methyl-4-(trifluoromethyl)-1H-imidazol-2-yl)piperidin-4-yl)methyl)-[2,5'-bipyrimidin]-4-amine] yielded an IC50 (MDA-MB-436) of 353 nM and an IC50 [1] of 19.7 nM.

Molecule COc1cnc(-c2cccnc2C2CC2)nc1NCc1ccc(-n2nc(C(F)(F)F)cc2C)cc1 [Example 154, 2-(2-Cyclopropylpyridin-3-yl)-5-methoxy-N-(4-(5-methyl-3-(trifluoromethyl)-1H-pyrazol-1-yl)benzyl)pyrimidin-4-amine] has an IC50 (MDA-MB-436) of 7.3 nM and an IC50 [1] of 6.2 nM.

In the case of COC(=O)Cc1cnc(-c2ccccc2C(C)C)nc1NCc1ccc(-c2nc(C(F)(F)F)cn2C)cc1 [Example 91, Methyl 2-(2-(2-isopropylphenyl)-4-((4-(1-methyl-4-(trifluoromethyl)-1H-imidazol-2-yl)benzyl)amino)pyrimidin-5-yl)acetate], the IC50 (MDA-MB-436) is reported as 479 nM and the IC50 [1] is reported as 1.3 nM.

With [2H]C([2H])([2H])Oc1ncnc(C2CC2)c1-c1ncc(OC)c(NCC23CCC(c4nc(C(F)(F)F)cn4C)(CC2)CC3)n1 [Example S5, 4'-Cyclopropyl-5-methoxy-6'-(methoxy-D3)-N-((4-(1-methyl-4-(trifluoromethyl)-1H-imidazol-2-yl)bicyclo[2.2.2]oct-1-yl)methyl)-[2,5'-bipyrimidin]-4-amine] the IC50 (MDA-MB-436) was 20.2 nM and the IC50 [1] was 14 nM.

In the case of CC(C)Oc1cnc(-c2ccccc2C(C)C)nc1NCc1ccc(-c2nc(C(F)(F)F)cn2C)cc1 [Example 73, 5-Isopropoxy-2-(2-isopropylphenyl)-N-(4-(1-methyl-4-(trifluoromethyl)-1H-imidazol-2-yl)benzyl)pyrimidin-4-amine], the IC50 (MDA-MB-436) is reported as 112 nM and the IC50 [1] is reported as 3.6 nM.

With COc1cnc(-c2ccccc2C2CC2)nc1NCc1ccc(-c2nc(C(F)(F)F)cn2C)cc1 [Example 169, 2-(2-Cyclopropylphenyl)-5-methoxy-N-(4-(1-methyl-4-(trifluoromethyl)-1H-imidazol-2-yl)benzyl)pyrimidin-4-amine] the IC50 (MDA-MB-436) was 0.4 nM and the IC50 [1] was 0.8 nM.

In the case of COc1ncnc(C2CC2)c1-c1ncc(OC(C)C)c(NCc2ccc(-c3nc(C(F)(F)F)cn3C)cc2)n1 [Example 111, 4'-Cyclopropyl-5-isopropoxy-6'-methoxy-N-(4-(1-methyl-4-(trifluoromethyl)-1H-imidazol-2-yl)benzyl)-[2,5'-bipyrimidin]-4-amine], the IC50 (MDA-MB-436) is reported as 88.1 nM and the IC50 [1] is reported as 10.4 nM.

Molecule COc1ncnc(C2CC2)c1-c1nc(NCc2ccc(-n3nc(C(F)(F)F)cc3C)cc2)c2occc2n1 [Example 50, 2-(4-Cyclopropyl-6-methoxypyrimidin-5-yl)-N-(4-(5-methyl-3-(trifluoromethyl)-1H-pyrazol-1-yl)benzyl)furo[3,2-d]pyrimidin-4-amine] has an IC50 (MDA-MB-436) of 0.022 nM and an IC50 [1] of 5.2 nM.

With COc1cnc(-c2cccnc2C2CC2)nc1NCC1CCN(c2nc(C(F)(F)F)cn2C)CC1 [Example 152, 2-(2-Cyclopropylpyridin-3-yl)-5-methoxy-N-((1-(1-methyl-4-(trifluoromethyl)-1H-imidazol-2-yl)piperidin-4-yl)methyl)pyrimidin-4-amine] the IC50 (MDA-MB-436) was 64.4 nM and the IC50 [1] was 7.5 nM.

With COc1cnc(-c2c(OC)ncnc2C2CC2)nc1NCC12C3C4C1C1C2C3C41c1nc(C(F)(F)F)cn1C (centres unmarked) [Example 215] the IC50 (MDA-MB-436) was 8.7 nM and the IC50 [1] was 2.2 nM.

COc1cnc(-c2ccccc2C(C)C)nc1N(C)CC1CCN(c2ccccn2)CC1 [Example 2, 2-(2-Isopropylphenyl)-5-methoxy-N-methyl-N-((1-(pyridin-2-yl)piperidin-4-yl)methyl)pyrimidin-4-amine] showed an IC50 (MDA-MB-436) of 0.1 nM and an IC50 [1] of 14 nM.

Cc1noc(C(C)C)c1-c1nc(NCc2ccc(-c3ccccn3)cc2)c2occc2n1 [Example 189, 2-(5-Isopropyl-3-methylisoxazol-4-yl)-N-(4-(pyridin-2-yl)benzyl)furo[3,2-d]pyrimidin-4-amine] was tested, and the IC50 (MDA-MB-436) was 307 nM and the IC50 [1] was 16 nM.

COc1cnc(-c2c(Cl)cnn2C(C)C)nc1NCC12CCC(c3nc(C(F)(F)F)cn3C)(CC1)OC2 [Example 209, 2-(4-chloro-1-isopropyl-1H-pyrazol-5-yl)-5-methoxy-N-((1-(1-methyl-4-(trifluoromethyl)-1H-imidazol-2-yl)-2-oxabicyclo[2.2.2]octan-4-yl)methyl)pyrimidin-4-amine] gave an IC50 (MDA-MB-436) of 31.6 nM and an IC50 [1] of 1.6 nM.

COc1cnc(-c2c(OC)ncnc2C(F)(F)F)nc1N(C)C[C@H]1CC[C@H](c2nc(C(F)(F)F)cn2C)CC1 [Example S36, 4',5-Dimethoxy-N-methyl-N-(((1R,4R)-4-(1-methyl-4-(trifluoromethyl)-1H-imidazol-2-yl)cyclohexyl)methyl)-6'-(trifluoromethyl)-[2,5'-bipyrimidin]-4-amine] was tested, and the IC50 (MDA-MB-436) was 1.8 nM and the IC50 [1] was 7.1 nM.

COc1cnc(-c2ccccc2C(C)C)nc1NCC1CCN(c2nc(C(F)(F)F)cn2C)CC1 [Example 65, 2-(2-Isopropylphenyl)-5-methoxy-N-((1-(1-methyl-4-(trifluoromethyl)-1H-imidazol-2-yl)piperidin-4-yl)methyl)pyrimidin-4-amine] showed an IC50 (MDA-MB-436) of 2.4 nM and an IC50 [1] of 2.1 nM.

CC(C)n1ncc(Cl)c1-c1nc(NCc2ccc(-c3nc(C(F)(F)F)cn3C)cc2)c2occc2n1 [Example 167, 2-(4-Chloro-1-isopropyl-1H-pyrazol-5-yl)-N-(4-(1-methyl-4-(trifluoromethyl)-1H-imidazol-2-yl)benzyl)furo[3,2-d]pyrimidin-4-amine] showed an IC50 (MDA-MB-436) of 2.9 nM and an IC50 [1] of 0.45 nM.

In the case of COc1cnc(-c2ccccc2C2CC2)nc1NCc1ccc(-n2nc(C(F)(F)F)cc2C)cc1 [Example 170, 2-(2-Cyclopropylphenyl)-5-methoxy-N-(4-(5-methyl-3-(trifluoromethyl)-1H-pyrazol-1-yl)benzyl)pyrimidin-4-amine], the IC50 (MDA-MB-436) is reported as 14.5 nM and the IC50 [1] is reported as 2.9 nM.

COc1cnc(-c2c(OC)ncnc2C2CC2)nc1N(C#N)CC12CCC(c3nc(C(F)(F)F)cn3C)(CC1)CC2 [Example S43] showed an IC50 (MDA-MB-436) of 12.1 nM and an IC50 [1] of 6.9 nM.

For COc1cnc(-c2c(Cl)cnn2C2CC2)nc1N(C)Cc1ccc(-c2nc(C(F)(F)F)cn2C)cc1 [Example 191, 2-(4-Chloro-1-cyclopropyl-1H-pyrazol-5-yl)-5-methoxy-N-methyl-N-(4-(1-methyl-4-(trifluoromethyl)-1H-imidazol-2-yl)benzyl)pyrimidin-4-amine], the IC50 (MDA-MB-436) was 10.7 nM and the IC50 [1] was 4.3 nM.

Molecule COc1cnc(-c2cncnc2C2CC2)nc1NCc1ccc(-c2nc(C(F)(F)F)cn2C)cc1 [Example 194, 4'-Cyclopropyl-5-methoxy-N-(4-(1-methyl-4-(trifluoromethyl)-1H-imidazol-2-yl)benzyl)-[2,5'-bipyrimidin]-4-amine] has an IC50 (MDA-MB-436) of 58.4 nM and an IC50 [1] of 51 nM.

Work on CCOCCOc1ccc(CNc2nc(-c3c(OC)ncnc3C3CC3)ncc2OC)cc1 [Example 99, 4'-Cyclopropyl-N-(4-(2-ethoxyethoxy)benzyl)-5,6'-dimethoxy-[2,5'-bipyrimidin]-4-amine] yielded an IC50 (MDA-MB-436) of 445 nM and an IC50 [1] of 15.1 nM.

CC(C)c1ccccc1-c1ncc(Cl)c(NCc2ccc(-c3nc(C(F)(F)F)cn3C)cc2)n1 [Example 38, 5-Chloro-2-(2-isopropylphenyl)-N-(4-(1-methyl-4-(trifluoromethyl)-1H-imidazol-2-yl)benzyl)pyrimidin-4-amine] gave an IC50 (MDA-MB-436) of 13.7 nM and an IC50 [1] of 1.1 nM.

For COc1cnc(-c2ccccc2N(C)C)nc1NCc1ccc(-c2nc(C(F)(F)F)cn2C)cc1 [Example 159, 2-(2-(Dimethylamino)phenyl)-5-methoxy-N-(4-(1-methyl-4-(trifluoromethyl)-1H-imidazol-2-yl)benzyl)pyrimidin-4-amine], the IC50 (MDA-MB-436) was 39.4 nM and the IC50 [1] was 1.7 nM.

Work on COc1cnc(-c2c(OC)ncnc2C2CC2)nc1N(C)Cc1ccc(-c2nc(C(F)(F)F)cn2C)cc1 [Example 8, 4'-Cyclopropyl-5,6'-dimethoxy-N-methyl-N-(4-(1-methyl-4-(trifluoromethyl)-1H-imidazol-2-yl)benzyl)-[2,5'-bipyrimidin]-4-amine] yielded an IC50 (MDA-MB-436) of 2.3 nM and an IC50 [1] of 1.4 nM.

In the case of COc1cnc(-c2c(Cl)cnn2C(C)C)nc1N(C)CC12CCC(c3nc(C(F)(F)F)cn3C(C)C)(CC1)OC2 [Example S13, 2-(4-Chloro-1-isopropyl-1H-pyrazol-5-yl)-N-((1-(1-isopropyl-4-(trifluoromethyl)-1H-imidazol-2-yl)-2-oxabicyclo[2.2.2]oct-4-yl)methyl)-5-methoxy-N-methylpyrimidin-4-amine], the IC50 (MDA-MB-436) is reported as 60.8 nM and the IC50 [1] is reported as 13 nM.

For COc1cnc(-c2c(OC)ncnc2C2CC2)nc1N(C)CC1CCN(c2nc(C(F)(F)F)cn2C)CC1 [Example 92, 4'-Cyclopropyl-5,6'-dimethoxy-N-methyl-N-((1-(1-methyl-4-(trifluoromethyl)-1 H-imidazol-2-yl)piperidin-4-yl)methyl)-[2,5'-bipyrimidin]-4-amine], the IC50 (MDA-MB-436) was 27.3 nM and the IC50 [1] was 3.3 nM.

With COc1cc(CNc2nc(-c3ccccc3C(C)C)nc3ccoc23)ccc1-n1nc(C(F)(F)F)cc1C [Example 84, 2-(2-Isopropylphenyl)-N-(3-methoxy-4-(5-methyl-3-(trifluoromethyl)-1H-pyrazol-1-yl)benzyl)furo[3,2-d]pyrimidin-4-amine] the IC50 (MDA-MB-436) was 704 nM and the IC50 [1] was 9 nM.

With COCc1cnc(-c2c(OC)ncnc2C2CC2)nc1N(C)Cc1ccc(-c2nc(C(F)(F)F)cn2C(C)C)cc1 [Example 138, 4'-Cyclopropyl-N-(4-(1-isopropyl-4-(trifluoromethyl)-1H-imidazol-2-yl)benzyl)-6'-methoxy-5-(methoxymethyl)-N-methyl-[2,5'-bipyrimidin]-4-amine] the IC50 (MDA-MB-436) was 12.4 nM and the IC50 [1] was 9 nM.
